Results published in ChEMBL document CHEMBL4052678, “Urotensin core mimics that modulate the biological activity of urotensin-II related peptide but not urotensin-II” (Bioorg Med Chem Lett, 2017).
pEC50: −log10 of the molar value. Activity calls are given as the source filed them. The rule behind the calls is not given here. Starred links: 1 amine or outer side, 2 acyl side, 3 side chain; linkers in the order of their positions; H or OH if unused. Non-standard residues stand in square brackets, D forms with d. Residues, ends and D or L forms follow the SMILES beside them. X1 = O=C(Cn1cc(CN[*:1])nn1)[*:2]

Legend:
Format in all cases: functional
[1] = tested on: Aorta; assay: Inhibition of urotensin II-related peptide-induced contraction in Sprague-Dawley rat aortic rings assessed as Emax for urotensin II-related peptide at 30 umol relative to KCl-induced contraction (reference value: 113 +/- 2%)
[2] = tested on: Aorta; assay: Inhibition of human urotensin II-induced contraction in Sprague-Dawley rat aortic rings assessed as Emax for urotensin II at 30 umol relative to KCl-induced contraction (reference value: 104 +/- 4%)
[3] = tested on: Aorta; assay: Inhibition of human urotensin II-induced contraction in Sprague-Dawley rat aortic rings assessed as Emax for urotensin II relative to KCl-induced contraction (reference value: 8.59 +/- 0.08)
[4] = tested on: Aorta; assay: Inhibition of urotensin II-related peptide-induced contraction in Sprague-Dawley rat aortic rings assessed as Emax for urotensin II-related peptide relative to KCl-induced contraction (reference value: 8.07 +/- 0.03)
[5] = tested on: Aorta; assay: Induction of contraction in Sprague-Dawley rat aortic rings at 30 umol relative to KCl-induced contraction
[6] = tested on: Aorta; assay: Induction of contraction in Sprague-Dawley rat aortic rings at 25 umol relative to KCl-induced contraction

pEC50 [3]	pEC50 [4]	Structure (SMILES)	Emax [1] [%]	Emax [2] [%]	Activity [5]	Activity [6]
8.87	8.52	NCCCC[C@@H]1NC(=O)[C@H](Cc2c[nH]c3ccccc23)NC(=O)Cn2cc(nn2)CNC(=O)[C@H](Cc2ccc(O)cc2)NC1=O	90	97	Active	
8.37	9.30	NCCCC[C@@H]1NC(=O)[C@H](Cc2c[nH]c3ccccc23)NC(=O)[C@H](Cc2ccccc2)NC(=O)Cn2cc(nn2)CNC(=O)[C@H](Cc2ccc(O)cc2)NC1=O (cyclo(FWKY[X1]))	54	96		Active
